Tests used:
[1] = test system: human PBMCs; assay: Human PBMC cytokine response assay (IFN-γ and IFN-α in cell-free medium by ELISA), with or without cPLGA;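 on IFN-α (pg/ml) mean: 20 µg/mL compound for 24 hours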;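 on IFN-γ (pg/ml) mean: 20 µg/mL compound for 24 hours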; type: cell-based; conditions: for IFN-α induction (FIG. 10), in words: PBMCs from 8 donors, 20 μg/ml; for IFN-α induction (FIG. 10), in words / IFN-γ (pg/ml) 28065 / IFN-α (pg/ml) 28065 / IFN-α (pg/ml) 28066 / IFN-γ (pg/ml) 28066 / IFN-α (pg/ml) 28067 / IFN-γ (pg/ml) 28067 / IFN-α (pg/ml) 28068 / IFN-γ (pg/ml) 28068 / IFN-α (pg/ml) mean / IFN-γ (pg/ml) mean: 24 h; for IFN-γ (pg/ml) 28065: donor 28065 (high background), 1000 = outside assay limits; for IFN-γ (pg/ml) 28065 / IFN-α (pg/ml) 28065 / IFN-α (pg/ml) 28066 / IFN-γ (pg/ml) 28066 / IFN-α (pg/ml) 28067 / IFN-γ (pg/ml) 28067 / IFN-α (pg/ml) 28068 / IFN-γ (pg/ml) 28068 / IFN-α (pg/ml) mean / IFN-γ (pg/ml) mean: 20 ug/ml, + PLGA = premixed with 100 μg/ml cPLGA; for IFN-α (pg/ml) 28065: donor 28065; for IFN-α (pg/ml) 28066 / IFN-γ (pg/ml) 28066: donor 28066; for IFN-α (pg/ml) 28067 / IFN-γ (pg/ml) 28067: donor 28067; for IFN-α (pg/ml) 28068 / IFN-γ (pg/ml) 28068: donor 28068; for IFN-α (pg/ml) mean / IFN-γ (pg/ml) mean: mean of donors 28065-28068
[2] = test system: CD19+ B cells; assay: Human B cell proliferation assay (3H-thymidine incorporation); conditions: for B cell proliferation (FIG. 11), in words: purified human B cells, 5 μg/ml, 96 h; for cpm1 / cpm2 / cpm3 / mean cpm / mean of both: B cells, 2 μg/ml, Experiment B; for mean of both: mean of donors 121 and 194
[3] = Table 24, mean of donors 28234-28237

Q: With “(5′-TCGTCGA-3′-C3)2-glycerol-C3-5′-TCGTCGA-3′ [Compound C-104]” as the substance, how does the “IFN-α induction (FIG. 10), in words” value [1] read?
A: Its value is “induces no measurable IFN-α”.

Q: And the IFN-α ([1]; Table 24, donor 28234)?
A: The IFN-α was 16 pg/mL.

Q: What about the IFN-γ ([1]; Table 24, donor 28234) of the same substance?
A: Its IFN-γ is 14 pg/mL.

Q: And the IFN-α ([1]; Table 24, donor 28235)?
A: Its IFN-α is 29 pg/mL.

Q: And the IFN-γ ([1]; Table 24, donor 28235)?
A: Its IFN-γ is 4 pg/mL.

Q: What about the IFN-α ([1]; Table 24, donor 28236) of the same substance?
A: The IFN-α was 16 pg/mL.

Q: And the IFN-γ ([1]; Table 24, donor 28236)?
A: The IFN-γ was 87 pg/mL.

Q: What about the IFN-α ([1]; Table 24, donor 28237) of the same substance?
A: The IFN-α was 16 pg/mL.

Q: And the IFN-γ ([1]; Table 24, donor 28237)?
A: Its IFN-γ is 125 pg/mL.

Q: And the IFN-α mean [1, 3]?
A: Its IFN-α mean is 19 pg/mL.

Q: And the IFN-γ mean [1, 3]?
A: Its IFN-γ mean is 58 pg/mL.

Q: What about the “IFN-α induction, in words” value ([1]; used alone) of the same substance?
A: Its value is “HEG (C-94)>TEG (C-103)>C3 (C-104)=no linker (C-28)”.

Q: What about the “B cell proliferation (FIG. 11), in words” value [2] of the same substance?
A: The value was “stimulates B cells to proliferate”.

Q: Which “IFN-γ (pg/ml) 28065” value [1] does the source give for “5′-TCGTCG-3′-C4-5′-ACGTTCG-3′-C4-5′-AGATGAT-3′ [Compound C-17]” here?
A: Its value is 1000 pg/mL.

Q: What about the “IFN-α (pg/ml) 28065” value [1] of the same substance?
A: Its value is 21 pg/mL.

Q: What about the “IFN-α (pg/ml) 28066” value [1] of the same substance?
A: The value was 0 pg/mL.

Q: And the “IFN-γ (pg/ml) 28066” value [1]?
A: Its value is 6 pg/mL.

Q: And the “IFN-α (pg/ml) 28067” value [1]?
A: Its value is 22 pg/mL.

Q: And the “IFN-γ (pg/ml) 28067” value [1]?
A: The value was 32 pg/mL.

Q: And the “IFN-α (pg/ml) 28068” value [1]?
A: Its value is 95 pg/mL.

Q: What about the “IFN-γ (pg/ml) 28068” value [1] of the same substance?
A: Its value is 459 pg/mL.

Q: What about the “IFN-α (pg/ml) mean” value [1] of the same substance?
A: Its value is 34 pg/mL.

Q: What about the “IFN-γ (pg/ml) mean” value [1] of the same substance?
A: Its value is 374 pg/mL.

Q: What about the cpm1 ([2]; donor 121) of the same substance?
A: The cpm1 was 27975 cpm.

Q: And the cpm2 ([2]; donor 121)?
A: The cpm2 was 30426 cpm.

Q: What about the cpm3 ([2]; donor 121) of the same substance?
A: The cpm3 was 9895 cpm.

Q: What about the mean cpm ([2]; donor 121 mean) of the same substance?
A: The mean cpm was 22765 cpm.

Q: What about the cpm1 ([2]; donor 194) of the same substance?
A: Its cpm1 is 17467 cpm.

Q: And the cpm2 ([2]; donor 194)?
A: The cpm2 was 14890 cpm.

Q: What about the cpm3 ([2]; donor 194) of the same substance?
A: The cpm3 was 10518 cpm.

Q: And the mean cpm ([2]; donor 194 mean)?
A: Its mean cpm is 14292 cpm.

Q: What about the mean of both [2] of the same substance?
A: The mean of both was 18529 cpm.

Q: What does the source list for “5′-TCGTCG-3′-HEG-5′-TCGTCG-3′-HEG-5′-TCGTCG-3′ [Compound C-22]”?
A: IFN-α ([1]; Table 9, donor 28089): 0 pg/mL; IFN-γ ([1]; Table 9, donor 28089): 31 pg/mL; IFN-α ([1]; Table 9, donor 28090): 46 pg/mL; IFN-γ ([1]; Table 9, donor 28090): 15 pg/mL; IFN-α ([1]; Table 9, donor 28098): 97 pg/mL; IFN-γ ([1]; Table 9, donor 28098): 110 pg/mL; IFN-α ([1]; Table 9, donor 28099): 247 pg/mL; IFN-γ ([1]; Table 9, donor 28099): 91 pg/mL; IFN-α mean ([1]; Table 9, mean of donors): 97 pg/mL; IFN-γ mean ([1]; Table 9, mean of donors): 62 pg/mL; IFN-α ([1]; Table 10, donor 28042): 12 pg/mL; IFN-γ ([1]; Table 10, donor 28042): 206 pg/mL; IFN-α ([1]; Table 10, donor 28043): 18 pg/mL; IFN-γ ([1]; Table 10, donor 28043): 343 pg/mL; IFN-α ([1]; Table 10, donor 28044): 67 pg/mL; IFN-γ ([1]; Table 10, donor 28044): 736 pg/mL; IFN-α ([1]; Table 10, donor 28045): 30 pg/mL; IFN-γ ([1]; Table 10, donor 28045): 40 pg/mL; IFN-α mean ([1]; Table 10, mean of donors): 32 pg/mL; IFN-γ mean ([1]; Table 10, mean of donors): 331 pg/mL; activity when formulated with cPLGA, in words ([1]; formulated with cPLGA): induced considerable IFN-γ and IFN-α when formulated with cPLGA; IFN-γ induction, in words ([1]; used alone): induce IFN-γ when used alone; cpm1 ([2]; donor 121): 17147 cpm; cpm2 ([2]; donor 121): 14014 cpm; cpm3 ([2]; donor 121): 6844 cpm; mean cpm ([2]; donor 121 mean): 12668 cpm; cpm1 ([2]; donor 194): 6472 cpm; cpm2 ([2]; donor 194): 5540 cpm; cpm3 ([2]; donor 194): 3894 cpm; mean cpm ([2]; donor 194 mean): 5302 cpm; mean of both [2]: 8985 cpm

Q: Which results are given for “(5′-TCGATCG-3′-HEG)2-glycerol-HEG-5′-TCGATCG-3′ [Compound C-145]”?
A: IFN-α induction (FIG. 10), in words [1]: induce high levels of IFN-α; B cell proliferation (FIG. 11), in words [2]: induce very little B cell proliferation

Q: For “(5′-TCGTTCG-3′-HEG)2-glycerol-HEG-5′-TCGTTCG-3′ [Compound C-158]”, which “IFN-α induction (FIG. 10), in words” value [1] is on record?
A: The value was “induce high levels of IFN-α”.

Q: And the “B cell proliferation (FIG. 11), in words” value [2]?
A: The value was “induce B cells to proliferate”.

Q: With “5′-TCGTCG-3′-abasic-5′-ACGTTCG-3′-abasic-5′-AGATGAT-3′ [Compound C-20]” as the substance, how does the “IFN-γ (pg/ml) 28065” value [1] read?
A: The value was 354 pg/mL.

Q: What about the “IFN-α (pg/ml) 28065” value [1] of the same substance?
A: The value was 21 pg/mL.

Q: What about the “IFN-α (pg/ml) 28066” value [1] of the same substance?
A: The value was 5 pg/mL.

Q: And the “IFN-γ (pg/ml) 28066” value [1]?
A: The value was 13 pg/mL.

Q: And the “IFN-α (pg/ml) 28067” value [1]?
A: The value was 13 pg/mL.

Q: And the “IFN-γ (pg/ml) 28067” value [1]?
A: Its value is 16 pg/mL.

Q: What about the “IFN-α (pg/ml) 28068” value [1] of the same substance?
A: Its value is 64 pg/mL.

Q: What about the “IFN-γ (pg/ml) 28068” value [1] of the same substance?
A: The value was 505 pg/mL.

Q: And the “IFN-α (pg/ml) mean” value [1]?
A: The value was 26 pg/mL.

Q: What about the “IFN-γ (pg/ml) mean” value [1] of the same substance?
A: Its value is 222 pg/mL.

Q: What about the cpm1 ([2]; donor 121) of the same substance?
A: The cpm1 was 31276 cpm.

Q: What about the cpm2 ([2]; donor 121) of the same substance?
A: Its cpm2 is 30851 cpm.

Q: What about the cpm3 ([2]; donor 121) of the same substance?
A: The cpm3 was 28532 cpm.

Q: What about the mean cpm ([2]; donor 121 mean) of the same substance?
A: The mean cpm was 30220 cpm.

Q: What about the cpm1 ([2]; donor 194) of the same substance?
A: Its cpm1 is 18082 cpm.

Q: What about the cpm2 ([2]; donor 194) of the same substance?
A: The cpm2 was 18705 cpm.

Q: What about the cpm3 ([2]; donor 194) of the same substance?
A: The cpm3 was 17481 cpm.

Q: What about the mean cpm ([2]; donor 194 mean) of the same substance?
A: The mean cpm was 18089 cpm.

Q: And the mean of both [2]?
A: The mean of both was 24155 cpm.

Reference: patent US9028845B2, “Chimeric immunomodulatory compounds and methods of using the same-IV” (Dynavax Technologies Corporation, priority 2001, dated 2015)
